Test results reported in patent publication US6495688B2, “Deazapurine derivatives: a new class of CRF1 specific ligands” (Neurogen Corporation, priority 1995, dated 2002).
Structures can show the parent of a compound that is named as a salt.

Tests used:
CRF receptors = molecular target: T1, CRF receptors (Homo sapiens, UniProt P34998); assay: CRF receptor binding assay (125I-CRF displacement); settings: membrane preparation, 125I-CRF 100 pM, room temperature 2 hours
T1 sequence (P34998 24-415): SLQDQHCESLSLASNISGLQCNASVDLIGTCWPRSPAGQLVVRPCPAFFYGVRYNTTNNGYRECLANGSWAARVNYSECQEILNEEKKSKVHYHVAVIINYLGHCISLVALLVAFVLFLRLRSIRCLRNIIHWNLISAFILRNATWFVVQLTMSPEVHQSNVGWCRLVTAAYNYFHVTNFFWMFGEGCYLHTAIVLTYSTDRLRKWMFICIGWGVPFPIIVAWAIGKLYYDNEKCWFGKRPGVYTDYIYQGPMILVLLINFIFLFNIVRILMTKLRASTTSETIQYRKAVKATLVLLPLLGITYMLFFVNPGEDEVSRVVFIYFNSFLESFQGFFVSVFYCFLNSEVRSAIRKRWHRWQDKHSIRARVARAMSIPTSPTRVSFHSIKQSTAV
Protocol: Assay for CRF Receptor Binding Activity
CRF receptor binding was performed using a modified version of the assay described by Grigoriadis and De Souza (Biochemical, Pharmacological, and Autoradiographic Methods to Study Corticotropin-Releasing Factor Receptors. Methods in Neurosciences, Vol. 5, 1991). Membrane pellets containing CRF receptors were resuspended in 50 mM Tris buffer pH 7.7 containing 10 mM MgCl2 and 2 mM EGTA and centrifuged for 10 minutes at 48000 g. Membranes were washed again and brought to a final concentration of 1500 μg/ml in binding buffer (Tris buffer above with 0.1% BSA, 0.15 mM bacitracin and 0.01 mg/ml aprotinin.). For the binding assay, 100 ul of the membrane preparation was added to 96 well microtube plates containing 100 μl of ^125I-CRF (SA 2200 Ci/mmol, final concentration of 100 pM) and 50 μl of drug. Binding was carried out at room temperature for 2 hours. Plates were then harvested on a Brandel 96 well cell harvester and filters were counted for gamma emissions on a Wallac 1205 Betaplate liquid scintillation counter. Non specific binding was defined by 1 μM cold CRF. IC50 values were calculated with the non-linear curve fitting program RS/1 (BBN Software Products Corp., Cambridge, Mass.).

| IC50 (CRF receptors) [nM] | melting point [°C] | SMILES |
| --- | --- | --- |
| 500 | 126 to 128 | CCCCN(CC)c1ncnc2c(-c3c(C)cc(C)cc3C)cn(C)c12 [Compound 5, N-Butyl-N-Ethyl-5-methyl-7-(2,4,6trimethylphenyl)-5H-pyrrolo[3,2-d]pyrimidin-4-amine] |
|  | 140 to 142 | Cc1cc(C)c(-c2cn(C)c3c(N4CCCCCC4)ncnc23)c(C)c1 [Compound 7, 4-(1-Homopiperidinyl)-5-methyl-7-(2,4,6-trimethylphenyl)-5H-pyrrolo[3,2-d]pyrimidine] |
|  | 205 to 207 | CCCN(CC1CC1)c1ncnc2c(-c3c(C)cc(C)cc3C)cn(C)c12 (as salt: HCl) [Compound 1, N-cyclopropylmethyl-N-propyl-5-methyl-7-(2,4,6-trimethylphenyl)-5H-pyrrolo[3,2-d]pyrimidin-4-amine] |
|  | 116 to 118 | CCCN(CCC)c1ncnc2c(-c3c(C)cc(C)cc3C)cn(C)c12 [Compound 2, N,N-Dipropyl-5-methyl-7-(2,4,6trimethylphenyl)-5H-pyrrolo[3,2-d]pyrimidin-4-amine] |
| 110 |  | CCCN(CC1CC1)c1ncnc2c(-c3c(C)cc(C)cc3C)cn(C)c12 [Compound 1, N-cyclopropylmethyl-N-propyl-5-methyl-7-(2,4,6-trimethylphenyl)-5H-pyrrolo[3,2-d]pyrimidin-4-amine] |
